Experimental data from patent publication US6515140B2, “Fused pyrrolecarboxamides; a new class of GABA brain receptor ligands” (Neurogen Corporation, priority 1996, dated 2003).

| melting point | Structure (SMILES) |
| --- | --- |
| 148 to 150 °C | CCCN(CCC)CCNC(=O)COc1ccc(NC(=O)c2c[nH]c3c2C(=O)CCC3)cc1 [Compound 228, N-[2-(dipropylamino)ethyl]-2-{4-[(4-oxo-(4,5,6,7-tetrahydroindol-3-yl))carbonylamino]phenoxy}acetamide] |
| 216 °C | O=C(Nc1ccc2c(c1)NCCO2)c1c[nH]c2c1C(=O)CCC2 [Compound 33, N-(3,4-Dihydro-2H-1,4-benzoxazin-6-yl)-4-oxo-4,5,6,7-tetrahydro-1H-indole-3-carboxamide] |
| 184 to 186 °C | O=C(Nc1ccc(CCN2CCCC2)cc1)c1c[nH]c2c1C(=O)CCC2 [Compound 59, N-[4-(2-Pyrrolidin-1-ylethyl)phenyl]-4-oxo-4,5,6,7-tetrahydro-1H-indole-3-carboxamide] |
| 216 to 218 °C | CN(C)Cc1ccc(NC(=O)c2c[nH]c3c2C(=O)CCC3)cc1 [Compound 23, N-[4-(Dimethylaminomethyl)phenyl]-4-oxo-4,5,6,7-tetrahydro-1H-indole-3-carboxamide] |
| 130 to 133 °C | CCCNCCOc1ccc(NC(=O)c2c[nH]c3c2C(=O)CCC3)cc1 [Compound 64, N-[4-(2-n-Propylaminoethoxy)phenyl]-4-oxo-4,5,6,7-tetrahydro-1H-indole-3-carboxamide] |
| 226 to 230 °C | O=C(Nc1ccc(OCCn2ccnc2)cc1)c1c[nH]c2c1C(=O)CCC2 [Compound 91, N-[4-(2-Imidaz-1-ylethoxy)phenyl]-4-oxo-4,5,6,7-tetrahydro-1H-indole-3-carboxamide] |
| 241 to 243 °C | O=C(Nc1cnccc1OCc1cccnc1)c1c[nH]c2c1C(=O)CCCC2 [Compound 194, N-[4-(Pyrid-3-ylmethoxy)pyrid-3-yl]-4-oxo-1,4,5,6,7,8-hexahydro-cyclohepta[b]pyrrole-3-carboxamide] |
| 209 to 211 °C | CN1CCC(COc2ccncc2NC(=O)c2c[nH]c3c2C(=O)CCC3)C1 (centres unmarked) [Compound 131, N-{4-[(1-Methyl-pyrrolidin-3-yl)methoxy]pyrid-3-yl}-4-oxo-4,5,6,7-tetrahydro-1H-indole-3-carboxamide] |
| 245 to 247 °C | CC1(C)CC(=O)c2c(C(=O)Nc3ccc(CO)cc3)c[nH]c2C1 [Compound 31, N-[4-(Hydroxymethyl)phenyl]-4-oxo-6,6-dimethyl-4,5,6,7-tetrahydro-1H-indole-3-carboxamide] |
| 268 to 270 °C | CC1(C)CC(=O)c2c(C(=O)Nc3ccc(OCCO)cc3)c[nH]c2C1 [Compound 30, N-[4-(2-Hydroxyethoxy)phenyl]-4-oxo-6,6-dimethyl-4,5,6,7-tetrahydro-1H-indole-3-carboxamide] |
| 220 to 228 °C | CCN(CC)CCN(C)C(=O)COc1ccc(NC(=O)c2c[nH]c3c2C(=O)CCC3)cc1 |
| 188 to 245 °C (dec.) | Cl.O=C(Nc1cnccc1OCCN1CCCC1)c1c[nH]c2c1C(=O)CCC2 |
| 260 to 262 °C | CC1CC(=O)c2c(C(=O)Nc3ccc(CO)cc3)c[nH]c2C1 (centres unmarked) [Compound 28, N-[4-(Hydroxymethyl)phenyl]-4-oxo-6-methyl-4,5,6,7-tetrahydro-1H-indole-3-carboxamide] |
| 203 °C | CN(C)CCOc1ccc(NC(=O)c2c[nH]c3c2C(=O)CCC3)cc1F [Compound 89, N-[3-Fluoro-4-(2-dimethylaminoethoxy)phenyl]-4-oxo-4,5,6,7-tetrahydro-1H-indole-3-carboxamide] |
| 165 to 167 °C | CCN(CC)CCN(CC)C(=O)COc1ccc(NC(=O)c2c[nH]c3c2C(=O)CCC3)cc1 |
| 245 to 246 °C | CC1(C)CC(=O)c2c(C(=O)Nc3ccc4c(c3)OCO4)c[nH]c2C1 [Compound 43, N-(1,3-Benzodioxol-5-yl)-4-oxo-6,6-dimethyl-4,5,6,7-tetrahydro-1H-indole-3-carboxamide] |
| 177 to 178 °C | CCCNCCOc1ccncc1NC(=O)c1c[nH]c2c1C(=O)CCC2.Cl |
